In PMC6985109, “Cellular apoptosis and necrosis as therapeutic targets for novel Eugenol Tosylate Congeners against Candida albicans” (Scientific Reports, 2020):
≈ marks a conversion by molar mass, not a printed value.

Experiments:
Assay type in all cases: cell-based
Candida albicans 4175 = experiment: Broth microdilution antifungal susceptibility (MIC/MFC); conditions: Candida albicans, strain 4175, FLC susceptible
Protocol: (§1) In this study, 10 clinical Candida albicans isolates, comprising of 5 fluconazole susceptible and 5 fluconazole resistant, were used. C. albicans SC5314 was also used as a control laboratory strain. Clinical strains used in this study were stored at −80 °C supplemented with 20% glycerol in the Department of Clinical Microbiology and Infectious Diseases, University of the Witwatersrand, Johannesburg and were previously collected under the ethical clearance number M000402, obtained from the Human Research Ethics Committee, University of the Witwatersrand. For experimental purpose each strain from glycerol stock was recovered on Sabouraud Dextrose (SDA) agar plates at 37 °C for 24 h.
(§2) Minimum Inhibitory Concentration (MIC) and Minimum Fungicidal Concentrations (MFC) of all newly synthesized eugenol-tosylate congeners (ETC-1–ETC-7) against C. albicans strains were determined by broth microdilution assay in accordance with the approved guidelines described by Clinical and Laboratory Standards Institute (CLSI) guidelines M27-A[38]. The test compounds were prepared in 1% DMSO to a stock concentration of 8192 µg/ml. Two-fold dilutions of test compounds (100 µL) were prepared in 96-well flat-bottom microtiter plates, inoculated with 100 µl of inoculum (1 × 10^6 cells/mL) and incubated at 37 °C for 24 hours. In every set of experiment, positive control (fluconazole), negative vehicle control (1% DMSO) and culture control (media and cells only) were included. MIC’s were determined visibly as the lowest concentration of the test compounds that inhibited growth of test organism. To determine MFC, each well without visible growth was sub-cultured onto agar plates. Concentration in the first well with no growth on plate was taken as MFC. […] The experiment was performed in triplicate to validate the results.

Candida albicans 4180 = experiment: as above; conditions: strain 4180, FLC susceptible
Protocol: as §1, §2

Candida albicans 4563 = experiment: as above; conditions: strain 4563, FLC susceptible
Protocol: as §1, §2

Candida albicans 4576 = experiment: as above; conditions: strain 4576, FLC susceptible
Protocol: as §1, §2

Candida albicans 5112 = experiment: as above; conditions: strain 5112, FLC resistant
Protocol: as §1, §2

Candida albicans 4122 = experiment: as above; conditions: strain 4122, FLC resistant
Protocol: as §1, §2

Candida albicans SC5314 = experiment: as above; conditions: SC5314, FLC susceptible
Protocol: as §1, §2

Candida albicans 4106 = experiment: as above; conditions: strain 4106, FLC resistant
Protocol: as §1, §2

Candida albicans 4135 = experiment: as above; conditions: strain 4135, FLC resistant
Protocol: as §1, §2

Candida albicans 4324 = experiment: as above; conditions: strain 4324, FLC resistant
Protocol: as §1, §2

Candida albicans 4179 = experiment: as above; conditions: strain 4179, FLC susceptible
Protocol: as §1, §2

horse red blood cells = experiment: Cytotoxicity by haemolytic assay; conditions: 2 × MIC, 60 minutes at 37 °C, horse RBCs
Protocol: The cytotoxicity of the test compounds was determined on horse red blood cells (NHLS, Johannesburg, South Africa) by testing the haemolytic activity of these compounds using the method described previously, with some modifications. Briefly, in a sterile 15 ml falcon tube 5 ml of horse blood was centrifuged at 2000 × rpm for 10 minutes. The supernatant was discarded, and the cell pellet was washed three times with chilled PBS solution. The final pellet was used to yield a 10% RBC suspension with chilled PBS. The 10% suspension were further diluted to 1:10 in PBS, then 100 µl of this suspension was added to different concentration of test compounds (0.5 × MIC, 1 × MIC and 2 × MIC) in 1.5 ml tubes. The tubes were then incubated for 60 minutes at 37 °C followed by centrifugation at 2000 × rpm for 10 minutes. From each tube, 200 µl of the supernatant was transferred to a flat-bottomed 96-well microtiter plate and absorbance was monitored at 450 nm spectrophotometrically with an iMark microplate reader (Bio-Rad laboratories, CA, USA). Triton X-100 (1%) and PBS were used as positive and negative controls respectively. The percentage of haemolysis was calculated by the following equation: %haemolysis=A450oftestcompoundtreatedsample−A450ofbuffertreatedsample/A450of1%TritonX−100treatedsample−A450ofbuffertreatedsample×100%

[1] = test system: fluconazole susceptible and resistant C. albicans strains; experiment: Broth microdilution antifungal susceptibility, ranges over strains; conditions: Candida albicans; over the tested C. albicans strains
Protocol: as §1, §2

C=CCc1ccc(OS(=O)(=O)c2ccc(C(=O)O)cc2)c(OC)c1 [ETC-7, 4-{[2-methoxy-4-(prop-2-en-1-yl)phenoxy]sulfonyl}benzoic acid]
MFC (Candida albicans 4175): 2 µg/mL (≈ 5.74 µM) | MIC (Candida albicans 4175; 37 °C, 24 h, read-out: MIC): 1 µg/mL (≈ 2.87 µM) | MFC (Candida albicans 4180): 8 µg/mL (≈ 23 µM) | MIC (Candida albicans 4180; 37 °C, 24 h): 4 µg/mL (≈ 11.5 µM) | MFC (Candida albicans 4563): 2 µg/mL (≈ 5.74 µM) | MIC (Candida albicans 4563; 37 °C, 24 h): 1 µg/mL (≈ 2.87 µM) | MFC (Candida albicans 4576): 4 µg/mL (≈ 11.5 µM) | MIC (Candida albicans 4576; 37 °C, 24 h): 2 µg/mL (≈ 5.74 µM) | MFC (Candida albicans 5112): 16 µg/mL (≈ 45.9 µM) | MIC (Candida albicans 5112; 37 °C, 24 h): 8 µg/mL (≈ 23 µM) | MFC (Candida albicans 4122): 16 µg/mL (≈ 45.9 µM) | MIC (Candida albicans 4122; 37 °C, 24 h): 8 µg/mL (≈ 23 µM) | MFC (Candida albicans SC5314): 2 µg/mL (≈ 5.74 µM) | MIC (Candida albicans SC5314; 37 °C, 24 h): 1 µg/mL (≈ 2.87 µM) | MFC (Candida albicans 4106): 4 µg/mL (≈ 11.5 µM) | MIC (Candida albicans 4106; 37 °C, 24 h): 2 µg/mL (≈ 5.74 µM) | MFC (Candida albicans 4135): 8 µg/mL (≈ 23 µM) | MIC (Candida albicans 4135; 37 °C, 24 h): 4 µg/mL (≈ 11.5 µM) | MFC (Candida albicans 4324): 8 µg/mL (≈ 23 µM) | MIC (Candida albicans 4324; 37 °C, 24 h): 4 µg/mL (≈ 11.5 µM) | MFC (Candida albicans 4179): 4 µg/mL (≈ 11.5 µM) | MIC (Candida albicans 4179; 37 °C, 24 h): 2 µg/mL (≈ 5.74 µM) | haemolytic activity (horse red blood cells): 8.91% | MFC [1]: 2 to 8 µg/mL (≈ 5.74 to 23 µM) | MIC [1]: 1 to 4 µg/mL (≈ 2.87 to 11.5 µM)
